{
  "source": "patent US20090035298A1",
  "about": "(priority 2007, published 2009)",
  "key": {"[1]": {"test_system": "hippocampal ISF Aβ levels", "type": "in vivo, Tg2576 mice", "details": "for Effect on ISF Aβ levels versus vehicle treated mice: 50 mg/kg intraperitoneal, n=8 per group; for Effect on ISF Aβ levels versus vehicle treated mice / ISF Aβ levels, % of baseline by 12 hours: 3-4 month old Tg2576 mice; for ISF Aβ levels, % of baseline by 12 hours: n=5"}, "[2]": {"test_system": "neuronal activity in the hippocampus", "design": "species or system Tg2576 mice", "details": "mouse, in vivo"}},
  "note": "Values joined by “and” are separate entries in the source; they are usually repeats but may differ in a detail not shown here. Equal values may be shown once. Read-outs that look alike come from different tables or passages of the source. Where no end group is shown, it is not given here.",
  "data": [
    {"compound": "C[C@]12C[C@H](O)[C@H]3[C@@H](CCC4=CC(=O)CC[C@@]43C)[C@@H]1CC[C@@H]2C(=O)CO", "note": "[CORT, Corticosterone]", "values": [
      {"measurement": "Effect on ISF Aβ levels versus vehicle treated mice", "setting": "[1]", "value": "no difference"},
      {"measurement": "Effect on ISF Aβ levels versus vehicle treated mice", "setting": "[1]; listed as Corticosterone", "value": "did not alter"}
    ]},
    {"compound": "NC1=N[C@H](O)[C@H]2[C@H]3O[C@]4(O)O[C@@H]([C@@H](O)[C@@]2(N1)[C@@H]4O)[C@]3(O)CO", "note": "[TTX, Tetrodotoxin]", "values": [
      {"measurement": "Change in ISF Aβ levels on 3 hours restraint stress given 8 hours after TTX treatment, compared to TTX-alone controls", "setting": "[1]; mouse, in vivo", "value": "no significant change"},
      {"measurement": "Decrease of ISF Aβ levels over 16 hours compared to baseline", "setting": "[1]; mouse, in vivo", "value": "~60", "unit": "%"},
      {"measurement": "ISF Aβ levels for an additional 12 hours in the presence of TTX", "setting": "[1]; mouse, in vivo", "value": "remained low"},
      {"measurement": "ISF Aβ levels, % of baseline by 17 hours from drug treatment", "setting": "[1]; mouse, in vivo", "value": 58.5, "unit": "%"},
      {"measurement": "Effect on neuronal activity in the hippocampus", "setting": "[2]", "value": "almost completely blocked"}
    ]},
    {"compound": "CRF (SEEPPISLDLTFHLLREVLEMARAEQLAQQAHSNRKLMEII; ends and bridges not checked; UniProt P06850 154-194, looked up)", "values": [
      {"measurement": "ISF Aβ levels, % of baseline by 12 hours", "setting": "[1]; 100 nM by reverse microdialysis in hippocampus", "value": "138.3±7.027% and 138.3%"},
      {"measurement": "Time of increase of ISF Aβ levels after drug infusion", "setting": "[1]; 100 nM in the microdialysis fluid", "value": 3, "unit": "h"},
      {"measurement": "ISF Aβ levels, % of baseline by 12 hours", "setting": "[1]; 200 nM by reverse microdialysis in hippocampus", "value": "171.9±17.83% and 171.9%"},
      {"measurement": "Time of increase of ISF Aβ levels after drug infusion", "setting": "[1]; 200 nM in the microdialysis fluid", "value": "immediately"},
      {"measurement": "Dose dependence of increase in ISF Aβ levels", "setting": "[1]; 100 and 200 nM by reverse microdialysis", "value": "dose-dependent manner"}
    ]}
  ]
}
